This note sets out measurements from patent US11072592B2, “Small molecules that enable cartilage rejuvenation” (The Regents of the University of California, priority 2015, dated 2021).

Common to all, as to assay type: cell-based
Data set [1] deals with pSTAT3 and MYC. Kind of data set: Western blot of pSTAT3 and MYC in adult pig articular chondrocytes. Conditions: for levels of MYC / levels of pSTAT3: adult pig articular chondrocytes, treated vs untreated, relative to histone H3. From the text:
Only early passages of chondrocytes (passage 0-2) were used for experimentation to avoid de-differentiation and loss of cartilage phenotype (Wu et al., 2014). Cartilage explants were made using 1, 2 or 8 mm biopsy punch and wet weight of each explant determined prior to experimentation. For cell isolation cartilage tissue was digested as described previously (Wu et al., 2015). Postnatal paraffin embedded joint and growth plate specimens were kindly donated by Dr Marcel Karperien from the University of Twente (Netherlands) and Dr Nick Bernthal from University of California Los Angeles. All donated material was anonymous and carried no personal identifiers. Cell culture reagents were purchased from Life Technologies, Inc. (Grand Island, N.Y.). Growth factors LIF, OSM, IL-6, TNF-α, IL-1β were purchased from Life Technologies, Inc (Grand Island, N.Y.). STATTIC, 10058-F4, SCl44 hydrochloride, and CP-690550 were purchased from Sigma Aldrich (St. Louis, Mo.). RCGD 423 (N-(4-Bromophenyl)-4-phenyl-1,3-thiazol-2-amine) was synthesized and provided by MolPort (Riga, Latvia). Fetal, adult and pig chondrocytes were cultured in DMEM F12 medium containing 10% (vol/vol) fetal bovine serum and 1% Penicillin-Streptomycin (vol/vol) at 37° C. in a humidified atmosphere of 95% aid and 5% CO2. Media was replenished with DMEM F12 medium containing 1% (vol/vol) fetal bovine serum and 1% Penicillin-Streptomycin (vol/vol) once treatments were added. For 3-dimensional (3D) cell cultures adult human articular chondrocytes were incubated with or without RCGD 423 using 10% solution of Mebiol® hydrogel from Cosmo Bio (Carlsbad, Calif.) in X-vivo 15 serum free medium from Lonza (Walkersville, Md.) as described previously (Wu et al., 2014).
(§1) Treated and non-treated ells were lysed in RIPA Lysis and Extraction Buffer (Pierce, Rockford, Ill.) containing protease inhibitors (Pierce) followed by sonication with a 15-second pulse at a power output of 2 using the VirSonic 100 (SP Industries Company, Warminster, Pa.). Protein concentrations were determined by BCA protein assay (Pierce). Proteins were resolved with SDS-PAGE utilizing 4-15% Mini-PROTEAN TGX Precast Gels and transferred to Trans-Blot Turbo Transfer Packs with a 0.2-μm pore-size nitrocellulose membrane. The SDS-PAGE running buffer, 4-15% Mini-PROTEAN TGX Precast Gels, Trans-Blot Turbo Transfer Packs with a 0.2-μm pore-size nitrocellulose membrane were purchased from Biorad (Hercules, Calif.). Nitrocellulose membranes were blocked in 5% nonfat milk in 0.05% (v/v) Tween 20 (PBST) (Corning, Manassas, Va.). Membranes were then incubated with primary antibodies phospho-STAT3 (#9131), MYC (#5605), NF-κB p65 (#D14E12), pAKT (#9272) Histone 3 (#9715) from Cell Signaling, (Danvers, Mass.); MEK1/2 (ab70613) and p38 (ab795) from Abcam (Cambridge, Mass.) overnight. After washing in PBS containing 0.05% (v/v) Tween 20 (PBST), membranes were incubated with Goat anti-Rabbit IgG (H+L) Secondary Antibody (Thermo Scientific Rockford, Ill.). After washing, membranes were developed with the Clarity Western ECL Blotting Substrate (Hercules, Calif.).
(In general: In western blotting, separated proteins are transferred to a membrane and probed.)

Data set [2] concerns MMP13, ADAMTS4 and ADAMTS5. Kind of data set: Quantitative PCR of catabolic genes in adult pig articular chondrocytes. On the procedure:
(§2) FIGS. 30A-30B. […] (FIG. 30A) Adult pig articular chondrocytes were cultured for 24 hours with the indicated cytokines or RCGD 423 and the levels of pSTAT3 and MYC were measured with respect to histone H3. Representative data for other proteins in the MAPK (p38 and MEK1/2), AKT (phospho-AKT; pAKT) or NF-KB (NF-KB p65) are also shown. (FIG. 30B) Levels of transcription of genes indicative of a catabolic response were determined via quantitative PCR in adult pig articular chondrocytes treated with OSM, IL-6, TNF-α, LIF or RCGD 423. Data are represented at mean±SD.
(§3) Cartilage degeneration is generally considered a feed-forward process, in which small losses of chondrocytes result in microenvironmental changes including induction of an inflammatory response and other pro-catabolic events (Hunziker, 2002). In turn, these alterations in the joint milieu promote production of matrix degrading proteins including MMPs (collagenases) and proteins of the ADAMTS family (aggrecanases). LIF has been implicated in promoting this cycle of matrix destruction during the pathogenesis of osteoarthritis (Hui et al., 2000; Lotz et al., 1992), although its role in this process has been controversial. In order to better understand the mechanism of action of LIF, RCGD 423 and known pro-inflammatory cytokines in the promotion of degeneration, we stimulated adult pig articular chondrocytes with these molecules and quantitated the levels of activated downstream proteins that mediate the cellular signaling response (FIG. 30A).
Total RNA was extracted using RNeasy Micro Kit (QIAGEN, Valencia, Calif.) according to the manufacturer's protocol. Quantitative reverse transcription PCR was performed using Bio-Rad T100 Thermal Cycler (Bio-Rad, Hercules, Calif.). Primer sequences are available upon request.

In data set [3] the test system is MAPK, AKT, NF-κB pathways. Kind of data set: Western blot of MAPK, AKT and NF-κB signaling in adult pig articular chondrocytes. Conditions: 24 hours. How it is done:
as §2, §3, §1

Data set [4] deals with pSTAT3 and MYC. Kind of data set: Western blot of pSTAT3 and MYC in human fetal articular chondrocytes. Conditions: 72 hours.
Source text: Moreover, LIFR expression is localized to chondrocytes in the superficial zone of articular cartilage throughout ontogeny. In contrast, LIF expression is strongest during fetal development and then diminishes over time (Table S1). […] LIF signals through a heterodimeric receptor comprised of LIFR and gp130 (IL6RST); upon binding extracellular ligand, both receptors are phosphorylated and recruit members of the JAK family which in turn phosphorylate STAT3 (pSTAT3). pSTAT3 then enters the nucleus to act as a transcriptional regulator. […] We first performed ELISA on human fetal and adult synovial fluid to determine if LIF protein levels change over time. […] Western blot analysis of the downstream effectors of LIF signaling, pSTAT3 and MYC, further supported reduced levels of LIF signaling in adult articular cartilage (FIG. 26A). We then confirmed that adolescent and adult articular chondrocytes in the superficial zone express both receptors required for LIF signaling (FIG. 33) and that these cells are the most anabolic of adult chondrocytes (FIGS. 34A-34B). Because STAT3 and MYC can respond to a variety of stimuli, we next wanted to determine if the increased levels of pSTAT3 and MYC in fetal cells were a direct result of increased LIF/LIFR signaling.
as §1

“Also recorded” adds a separate entry of the source.

Take TNF-α: in the data set on pSTAT3 and MYC [1], the “levels of MYC” value was “inhibit accumulation” and the “levels of pSTAT3” value is given as “inhibit accumulation”. Also, in the data set with pSTAT3 and MYC [1] (co-stimulation of cytokine and RCGD 423), the “increases in pSTAT3 and MYC in the presence of RCGD 423” value is recorded as “completely suppressed; also recorded: prevents the increases”. In addition, the “transcription of matrix degrading enzymes (MMP13, ADAMTS4 and ADAMTS5)” value in data set [2] is recorded as “upregulation”. For the same molecule, in data set [3], the NF-κB protein entry is reported as “increased”, the “activation of AKT” value was “strong activation” and the “activation of the MAPK pathway” value is given as “strong activation”.

For the molecule IL-6: IL-6 family cytokine, in the data set on pSTAT3 and MYC [1], the “levels of MYC” value is on record as “increase” and the “levels of pSTAT3” value is recorded as “increase”. The “transcription of matrix degrading enzymes (MMP13, ADAMTS4 and ADAMTS5)” value in data set [2] is “neither cytokine resulted in substantial transcriptional upregulation”. In data set [3], the “activation of AKT” value is recorded as “stimulated the activation” and the “activation of the MAPK pathway” value is “stimulated the activation”.

B1: sLIFR: soluble LIFR, which binds and sequesters LIF (protein, UniProt P42702 45-833, looked up)
extracellular domain: QKKGAPHDLKCVTNNLQVWNCSWKAPSGTGRGTDYEVCIENRSRSCYQLEKTSIKIPALSHGDYEITINSLHDFGSSTSKFTLNEQNVSLIPDTPEILNLSADFSTSTLYLKWNDRGSVFPHRSNVIWEIKVLRKESMELVKLVTHNTTLNGKDTLHHWSWASDMPLECAIHFVEIRCYIDNLHFSGLEEWSDWSPVKNISWIPDSQTKVFPQDKVILVGSDITFCCVSQEKVLSALIGHTNCPLIHLDGENVAIKIRNISVSASSGTNVVFTTEDNIFGTVIFAGYPPDTPQQLNCETHDLKEIICSWNPGRVTALVGPRATSYTLVESFSGKYVRLKRAEAPTNESYQLLFQMLPNQEIYNFTLNAHNPLGRSQSTILVNITEKVYPHTPTSFKVKDINSTAVKLSWHLPGNFAKINFLCEIEIKKSNSVQEQRNVTIKGVENSSYLVALDKLNPYTLYTFRIRCSTETFWKWSKWSNKKQHLTTEASPSKGPDTWREWSSDGKNLIIYWKPLPINEANGKILSYNVSCSSDEETQSLSEIPDPQHKAEIRLDKNDYIISVVAKNSVGSSPPSKIASMEIPNDDLKIEQVVGMGKGILLTWHYDPNMTCDYVIKWCNSSRSEPCLMDWRKVPSNSTETVIESDEFRPGIRYNFFLYGCRNQGYQLLRSMIGYIEELAPIVAPNFTVEDTSADSILVKWEDIPVEELRGFLRGYLFYFGKGERDTSKMRVLESGRSDIKVKNITDISQKTLRIADLQGKTSYHLVLRAYTDGGVGPEKSMYVVTKENS
modifications: extracellular domain
In the case of B1, the “levels of MYC” value with pSTAT3 and MYC [4] was “substantially reduced”; in the data set on pSTAT3 and MYC [4] (listed as LIFR), “reduces”; with pSTAT3 and MYC [4] (listed as soluble LIF receptor) it was “reduces”. Moreover, the “levels of pSTAT3” value is reported as “substantially reduced” in the data set on pSTAT3 and MYC [4]; “reduces” with pSTAT3 and MYC [4] (listed as LIFR); “reduces” in the data set with pSTAT3 and MYC [4] (listed as soluble LIF receptor).
